Reference: PMC7583830 (Molecules, 2020)
Where “and” joins values, the source holds several entries; their conditions need not be identical. Identical values can stand only once. Where a SMILES comes first, the peptide text is derived from it. [ ]: non-standard residue; d: D form. The star is where a group is joined. DOTA = O=C(O)CN1CCN(CC(=O)O)CCN(CC(=O)*)CCN(CC(=O)O)CC1; 1Nal = N[C@@H](Cc1cccc2ccccc12)C(=O)O; NMeNle = CCCC[C@H](NC)C(=O)O

Experiment: Stability in rat kidney homogenate
Format: in vitro ADME
Method: In vitro stability studies for the characterization of the metabolic stability of the radiolabeled peptide analogs in human serum were carried out with [^177Lu]Lu-1, [^177Lu]Lu-M1, [^177Lu]Lu-M2, [^177Lu]Lu-M3 and [^177Lu]Lu-M4 (n = 2). Additional stability studies in rat liver and kidney homogenates were performed for [^177Lu]Lu-1 (n = 2). Tissue homogenates were prepared from dissected organs by homogenization for 1 min at RT (IKA-Werke, Staufen, Germany) in 20 mM HEPES buffer pH 7.3 (30% v/v). The radioligands were incubated in the different media at a concentration of 500 pmol/mL (corresponding to an activity of 6–11 MBq). After incubation at 37 °C at different time points for up to 24 h, a 100 µl sample was taken in duplicates and analyzed by HPLC. Samples obtained from human serum and rat homogenates were treated with ACN at a ratio of 1:1.5 (v/v) to precipitate proteins, centrifuged (14,000 rpm, 2 min, centrifuge 5424, Eppendorf AG, Germany) and diluted with water at a ratio of 1:1 (v/v). A 100 µl aliquot of this solution was injected into the radio HPLC system. The degradation of the radioligand was evaluated based on the radiochemical purity after radiolabeling and the percentage of intact radiopeptide observed during incubation in the different media.

intact radiopeptide (20 min): 65.6 ± 2.8%
intact radiopeptide (30 min): 43.9 ± 1.0% and 44%
intact radiopeptide (2 h): < 5%
intact radiopeptide (24 h): < 1%
SMILES: CCCC[C@@H](C(=O)N[C@@H](CC(=O)O)C(=O)N[C@@H](Cc1cccc2ccccc12)C(N)=O)N(C)C(=O)[C@H](Cc1c[nH]c2ccccc12)NC(=O)CNC(=O)[C@H](Cc1ccc(O)cc1)NC(=O)[C@@H]1CCCN1C(=O)[C@@H](CCC(=O)O)NC(=O)CN1CCN(CC(=O)O)CCN(CC(=O)O)CCN(CC(=O)O)CC1 [[^177Lu]Lu-1, metal not drawn] ({DOTA}-[dE]PYGW[NMeNle]D[1Nal]-NH2)
